From ChEMBL document CHEMBL4622963, “Optimization of Nicotinamides as Potent and Selective IRAK4 Inhibitors with Efficacy in a Murine Model of Psoriasis” (ACS Med Chem Lett, 2020) come the findings set out here.

The nature of series [1]: Stability in human liver microsomes assessed as parent compound remaining. The series is classed as ADME, Microsome.
Series [2] is filed under the species Mus musculus. The series is described as follows: animal or person. The following applies: C57BL/6, po, 144 h, read-out: INH.
Series [3] is filed under the species Mus musculus. As to the kind of experiment: animal or person. The following applies: C57BL/6, po, 144 h, read-out: INH. The source holds these as a separate data set.
Series [4] is described as follows: Drug uptake in imiquimod-induced C57BL/6 mouse model of psoriasis at 10 mg/kg, po dosed via gavage twice daily and measured after 2 hrs by LC-MS analysis. The series is classed as ADME, organism-based. The note with it: in vivo, read-out: Drug uptake.
Series [5] in a line: Drug uptake in imiquimod-induced C57BL/6 mouse model of psoriasis at 10 mg/kg, po dosed via gavage twice daily and measured after 8 hrs by LC-MS analysis. The series is classed as ADME, organism-based. The following applies: in vivo, read-out: Drug uptake.
For series [6], the target named is TRAF2 and NCK-interacting protein kinase (Homo sapiens, UniProt Q9UKE5). As to the kind of experiment: Inhibition of human wild type partial length TNIK (D4-K311 residues) expressed in bacterial expression system.
Series [7] in a line: Drug uptake in imiquimod-induced C57BL/6 mouse model of psoriasis at 3 mg/kg, po dosed via gavage twice daily and measured after 8 hrs by LC-MS analysis. The class given is ADME, organism-based. The note with it: in vivo, read-out: Drug uptake.
Series [8] can be described thus: Drug uptake in imiquimod-induced C57BL/6 mouse model of psoriasis at 1 mg/kg, po dosed via gavage twice daily and measured after 2 hrs by LC-MS analysis. The note with it: in vivo, read-out: Drug uptake. The series is classed as ADME, organism-based.
The species entered for series [9] is Mus musculus. The series is described as follows: animal or person. The following applies: C57BL/6, po, 144 h, read-out: INH. The source holds these as a separate data set.
Series [10] is described as follows: Volume of distribution at steady state in mouse at 2 mg/kg, iv administered as infusion or 5 mg/kg, po via gavage measured up to 24 hrs by LC-MS analysis. The series is classed as ADME, organism-based. The note with it: in vivo, read-out: Vdss.
A further series is filed under the species Homo sapiens. The series is described as follows: Selectivity index, ratio of IC50 for recombinant N-terminal GST-tagged human cKit (544 to end residues) expressed in baculovirus infected Sf21 cells to IC50 for IRAK4 (unknown origin).
Series [11] has as its target T1, Interleukin-1 receptor-associated kinase 3 (Homo sapiens, UniProt Q9Y616).
T1 sequence (Q9Y616 whole entry): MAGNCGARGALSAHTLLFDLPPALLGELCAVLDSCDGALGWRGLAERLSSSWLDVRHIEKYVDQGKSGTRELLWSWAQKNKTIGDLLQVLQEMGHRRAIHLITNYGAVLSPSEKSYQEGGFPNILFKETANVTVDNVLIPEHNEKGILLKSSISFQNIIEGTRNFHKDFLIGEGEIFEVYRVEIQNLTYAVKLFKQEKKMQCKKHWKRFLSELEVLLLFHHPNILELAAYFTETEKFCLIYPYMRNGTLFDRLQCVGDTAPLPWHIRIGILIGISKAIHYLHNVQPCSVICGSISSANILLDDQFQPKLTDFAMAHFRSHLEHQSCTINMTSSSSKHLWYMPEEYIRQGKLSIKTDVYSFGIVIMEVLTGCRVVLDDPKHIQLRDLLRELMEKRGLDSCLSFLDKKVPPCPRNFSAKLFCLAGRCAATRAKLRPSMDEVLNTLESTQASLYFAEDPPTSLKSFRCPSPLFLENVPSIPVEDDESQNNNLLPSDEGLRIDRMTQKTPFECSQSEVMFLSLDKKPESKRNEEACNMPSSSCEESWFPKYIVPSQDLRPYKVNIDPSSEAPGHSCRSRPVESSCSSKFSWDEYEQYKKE
The series is described as follows: Inhibition of human wild type partial length IRAK3 (147 to 596 residues) expressed in bacterial expression system.

For series [12], the species on record is Mus musculus. As to the kind of experiment: animal or person. The note with it: C57BL/6, po, 144 h, read-out: INH. This is another data set of the same source.
Series [13] addresses T2, Interleukin-1 receptor-associated kinase 4 (Mus musculus) (UniProt Q8R4K2).
T2 sequence (whole entry): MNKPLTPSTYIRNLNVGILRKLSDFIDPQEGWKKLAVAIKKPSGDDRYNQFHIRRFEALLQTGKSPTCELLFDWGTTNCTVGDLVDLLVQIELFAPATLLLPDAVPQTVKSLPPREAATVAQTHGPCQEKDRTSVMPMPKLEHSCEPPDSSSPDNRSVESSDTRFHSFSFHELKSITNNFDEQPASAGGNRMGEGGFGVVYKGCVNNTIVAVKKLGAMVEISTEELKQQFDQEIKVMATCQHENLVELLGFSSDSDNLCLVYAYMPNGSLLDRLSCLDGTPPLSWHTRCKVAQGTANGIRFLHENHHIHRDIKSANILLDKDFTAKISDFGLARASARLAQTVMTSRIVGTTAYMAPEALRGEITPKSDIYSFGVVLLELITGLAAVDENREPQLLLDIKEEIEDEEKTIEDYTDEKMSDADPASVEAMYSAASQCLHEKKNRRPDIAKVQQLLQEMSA
The series is described as follows: In vivo Inhibition of IRAK4 in LTA-treated BALB/c mouse assessed as suppression of IL-6 level in serum at 0.3 mg/kg by ELISA relative to control. The series is classed as functional, organism-based. A general note: In an ELISA, binding on a coated surface is turned into a signal by an enzyme label.

A short description of series [14]: Half life in mouse at 2 mg/kg, iv administered as infusion or 5 mg/kg, po via gavage measured up to 24 hrs by LC-MS analysis. The series is classed as ADME, organism-based. The note with it: in vivo.
A short description of series [15]: AUC in mouse at 5 mg/kg, po via gavage measured up to 24 hrs by LC-MS analysis. The note with it: in vivo. Details: time < 24 hr, dose 5 mg/kg, route oral. The class given is ADME, organism-based.
Series [16] has as its target Tyrosine-protein kinase Lck (Homo sapiens, UniProt P06239). The series is described as follows: Inhibition of N-terminal His6-tagged human full length recombinant LCK expressed in baculovirus infected Sf21 cells.
The target in series [17] is Mast/stem cell growth factor receptor Kit (Homo sapiens, UniProt P10721). The series is described as follows: Inhibition of recombinant N-terminal GST-tagged human cKit (544 to end residues) expressed in baculovirus infected Sf21 cells.
A short description of series [18]: Oral bioavailability in mouse at 5 mg/kg administered via gavage measured up to 24 hrs by LC-MS analysis. The series is classed as ADME, organism-based. The following applies: in vivo.
Series [19] is described as follows: AUC in mouse at 2 mg/kg, iv administered as infusion measured up to 24 hrs by LC-MS analysis. The class given is ADME, organism-based. Further details: time < 24 hr, dose 2 mg/kg, route intravenous. The following applies: in vivo.
Series [20] concerns the target T3, Interleukin-1 receptor-associated kinase 4 (Homo sapiens, UniProt Q9NWZ3).
T3 sequence (Q9NWZ3 whole entry): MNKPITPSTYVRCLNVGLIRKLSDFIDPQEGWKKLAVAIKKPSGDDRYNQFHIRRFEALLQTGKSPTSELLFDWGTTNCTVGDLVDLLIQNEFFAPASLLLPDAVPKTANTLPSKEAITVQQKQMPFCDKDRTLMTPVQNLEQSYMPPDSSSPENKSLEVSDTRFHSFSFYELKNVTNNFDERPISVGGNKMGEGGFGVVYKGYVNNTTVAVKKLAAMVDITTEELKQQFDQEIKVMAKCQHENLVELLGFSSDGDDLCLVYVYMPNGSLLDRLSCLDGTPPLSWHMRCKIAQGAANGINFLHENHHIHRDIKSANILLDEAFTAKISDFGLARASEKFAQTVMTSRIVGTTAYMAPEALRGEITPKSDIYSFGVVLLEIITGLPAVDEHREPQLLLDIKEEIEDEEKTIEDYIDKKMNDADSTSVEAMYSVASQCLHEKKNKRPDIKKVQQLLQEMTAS
The series is described as follows: Inhibition of IRAK4 in human whole blood assessed as inhibition of LTA-induced IL-6 production preincubated for 30 mins followed by LTA-stimulation and measured after 5 hrs by ELISA. The class given is tissue-based.

Sequence of TRAF2 and NCK-interacting protein kinase (Q9UKE5 whole entry, the tested form may be a part): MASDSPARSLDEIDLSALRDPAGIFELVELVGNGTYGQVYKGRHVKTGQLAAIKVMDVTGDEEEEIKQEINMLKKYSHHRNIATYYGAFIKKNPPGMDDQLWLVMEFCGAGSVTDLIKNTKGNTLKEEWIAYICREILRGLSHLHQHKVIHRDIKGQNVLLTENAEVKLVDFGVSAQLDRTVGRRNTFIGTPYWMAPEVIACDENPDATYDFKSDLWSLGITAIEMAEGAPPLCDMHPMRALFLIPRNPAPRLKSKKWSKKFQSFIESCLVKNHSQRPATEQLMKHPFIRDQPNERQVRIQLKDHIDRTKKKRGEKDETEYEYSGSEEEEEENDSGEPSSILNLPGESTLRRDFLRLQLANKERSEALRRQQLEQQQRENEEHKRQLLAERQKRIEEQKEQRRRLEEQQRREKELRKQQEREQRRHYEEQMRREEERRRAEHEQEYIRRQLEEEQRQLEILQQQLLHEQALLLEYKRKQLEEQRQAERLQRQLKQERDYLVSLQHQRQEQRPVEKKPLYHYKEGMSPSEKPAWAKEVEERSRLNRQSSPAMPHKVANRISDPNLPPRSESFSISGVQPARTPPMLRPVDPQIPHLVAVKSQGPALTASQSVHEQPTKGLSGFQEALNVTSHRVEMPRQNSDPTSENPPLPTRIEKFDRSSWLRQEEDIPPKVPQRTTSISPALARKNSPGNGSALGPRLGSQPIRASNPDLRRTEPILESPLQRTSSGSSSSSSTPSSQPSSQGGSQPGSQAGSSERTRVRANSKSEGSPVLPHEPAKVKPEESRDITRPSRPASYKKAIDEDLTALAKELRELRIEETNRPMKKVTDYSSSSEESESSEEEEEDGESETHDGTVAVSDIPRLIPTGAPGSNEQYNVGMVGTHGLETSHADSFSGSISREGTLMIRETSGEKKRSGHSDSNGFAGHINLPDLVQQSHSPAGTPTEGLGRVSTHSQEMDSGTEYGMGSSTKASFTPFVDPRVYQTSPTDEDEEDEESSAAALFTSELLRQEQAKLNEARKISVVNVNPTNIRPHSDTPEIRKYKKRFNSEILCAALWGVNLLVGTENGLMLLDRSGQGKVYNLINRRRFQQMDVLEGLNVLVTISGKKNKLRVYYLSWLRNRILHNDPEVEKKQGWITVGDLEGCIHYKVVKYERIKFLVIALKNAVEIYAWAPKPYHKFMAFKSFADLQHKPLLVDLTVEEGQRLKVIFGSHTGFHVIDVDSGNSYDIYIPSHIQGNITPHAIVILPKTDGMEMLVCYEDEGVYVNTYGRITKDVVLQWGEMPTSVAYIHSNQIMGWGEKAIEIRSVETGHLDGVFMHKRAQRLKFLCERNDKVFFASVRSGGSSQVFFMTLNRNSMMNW
Sequence of Mast/stem cell growth factor receptor Kit (P10721 whole entry): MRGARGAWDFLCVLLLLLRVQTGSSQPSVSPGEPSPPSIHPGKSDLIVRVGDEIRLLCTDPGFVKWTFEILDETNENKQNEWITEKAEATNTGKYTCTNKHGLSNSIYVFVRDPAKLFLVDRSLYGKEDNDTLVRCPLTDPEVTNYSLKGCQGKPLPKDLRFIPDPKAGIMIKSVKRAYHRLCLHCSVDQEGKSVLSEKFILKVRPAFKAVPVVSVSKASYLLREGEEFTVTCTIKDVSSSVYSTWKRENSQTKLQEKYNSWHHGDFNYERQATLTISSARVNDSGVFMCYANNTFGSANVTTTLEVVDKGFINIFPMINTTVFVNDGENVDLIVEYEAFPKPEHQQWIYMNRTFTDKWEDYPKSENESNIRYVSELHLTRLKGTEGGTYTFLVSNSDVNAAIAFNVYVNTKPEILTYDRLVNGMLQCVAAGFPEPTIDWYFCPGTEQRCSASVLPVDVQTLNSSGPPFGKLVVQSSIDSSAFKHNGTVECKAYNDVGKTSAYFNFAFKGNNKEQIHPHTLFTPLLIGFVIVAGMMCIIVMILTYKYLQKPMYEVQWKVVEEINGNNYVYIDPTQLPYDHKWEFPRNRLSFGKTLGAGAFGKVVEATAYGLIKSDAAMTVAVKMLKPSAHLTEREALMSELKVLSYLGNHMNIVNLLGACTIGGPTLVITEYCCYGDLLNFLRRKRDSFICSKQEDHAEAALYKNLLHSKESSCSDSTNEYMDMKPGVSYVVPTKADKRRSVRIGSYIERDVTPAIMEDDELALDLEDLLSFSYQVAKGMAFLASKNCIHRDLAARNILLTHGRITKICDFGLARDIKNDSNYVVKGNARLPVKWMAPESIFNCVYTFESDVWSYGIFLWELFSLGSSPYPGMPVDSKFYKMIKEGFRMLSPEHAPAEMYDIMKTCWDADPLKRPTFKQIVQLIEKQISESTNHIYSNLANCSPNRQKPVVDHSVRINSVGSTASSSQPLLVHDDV
Sequence of Tyrosine-protein kinase Lck (P06239 whole entry): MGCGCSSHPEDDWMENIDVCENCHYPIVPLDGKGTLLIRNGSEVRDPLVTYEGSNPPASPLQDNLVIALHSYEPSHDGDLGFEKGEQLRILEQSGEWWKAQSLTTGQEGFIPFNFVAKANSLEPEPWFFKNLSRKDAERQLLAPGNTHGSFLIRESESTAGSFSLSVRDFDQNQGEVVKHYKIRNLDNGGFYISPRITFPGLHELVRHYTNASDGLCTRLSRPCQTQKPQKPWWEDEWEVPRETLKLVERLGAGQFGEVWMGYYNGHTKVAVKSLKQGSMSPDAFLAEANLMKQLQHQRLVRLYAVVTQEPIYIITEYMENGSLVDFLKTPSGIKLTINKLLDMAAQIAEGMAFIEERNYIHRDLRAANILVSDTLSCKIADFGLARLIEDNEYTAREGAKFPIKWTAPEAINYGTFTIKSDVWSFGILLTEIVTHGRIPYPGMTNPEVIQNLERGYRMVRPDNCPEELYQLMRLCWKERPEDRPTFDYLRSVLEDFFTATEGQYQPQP

As to `CC(C)Nc1cc(Nc2nc3ccnn3cc2F)ncc1C(=O)NC[C@@H](F)C(C)(C)O`, the Stability in series [1] was determined as 93%. For the same molecule, the results for the inhibition in vivo at 3 mg/kg in the series listed under Mus musculus [2] and in the series listed under Mus musculus [12] were 41% and 30%, respectively. Moreover, the inhibition in vivo at 1 mg/kg in the series filed under Mus musculus [3] is 27%; in the series filed under Mus musculus [9], 17%. Moreover, the concentration at 2 h turned out to be 9400 nM in series [4] and 400 nM in series [8]. Besides, the concentration at 8 h amounted to 494 nM in [5] and 31 nM in series [7]. The IC50 is 130 nM in series [6]; 760 nM in series [11]; > 2000 nM in series [16]; > 2000 nM in series [17]; 920 nM in [20]. Also, the Vd in series [10] was 2 L/kg. Further, the Ratio IC50 in the series listed under Homo sapiens is > 590. Besides, the inhibition in series [13] came out at 72%. This molecule had a half-life in series [14] of 1.4 h. The AUC at 24 h stood at 2.4 µM·h in series [15] and 5 µM·h in [19]. Besides, in series [18], the bioavailability is > 100%.

By IC50 is commonly meant the point on the concentration scale where inhibition reaches its midpoint. By inhibition is commonly meant the percentage by which the read-out fell short of the control. Usually half-life stands for the time needed for the level to fall by half in the phase considered. The term AUC denotes concentration integrated over time. A lower AUC goes with less exposure. By bioavailability is commonly meant dose-corrected exposure relative to a reference, in per cent. Low values mean poor availability, high ones good availability.
